Source: ChEMBL document CHEMBL3507680, “University of Dundee, Gates Library screen for HepG2 cell viability”

Experiment: Human HepG2 cell viability assay in 384 well format
Type: toxicity, cell-based
Design: dose 125 nL, time 70.5 hour; concentration not given beside the values
Conditions: HepG2 cells, read-out: Inhibition

SMILES | cytotoxicity at 70.5 h
CN(C)C(=O)CCS(=O)(=O)Cc1coc(-c2ccc(F)cc2)n1 | -16.4%
CNC(=O)CS(=O)(=O)Cc1coc(-c2cccc(F)c2)n1 | -8.64%
Cc1nnc(CN2CCC(c3nc4cc(Cl)ccc4o3)CC2)n1C | -18.9%
Clc1ccc2oc(C3CCN(Cc4nc(C5CC5)no4)CC3)nc2c1 | -16.3%
CCc1nnc(CN2CCC(c3nc4cc(Cl)ccc4o3)CC2)o1 | -11.3%
CN(CC(=O)N1CCN(c2cnccn2)CC1)c1ccc(Cl)cn1 | -13.1%
COc1ccc(NC(=O)COc2nn(C)c3nc(C)cc(C)c23)cn1 | -18.4%
Cc1cc(NC(=O)CN2CCc3c(nc(C(C)C)n3C)C2)on1 | -14.3%
CS(=O)(=O)CCCSc1cccc(C#N)c1 | -13%
COc1cc(C(=O)NS(=O)(=O)c2cncc(Br)c2)cc(Cl)c1OC | -15.8%
CCN(CC)C(=O)CNC(=O)N1CCC(c2ccccc2)C1 (stereo not given) | -6.54%
CC(CNC(=O)c1cc(Cl)ccc1F)N1CCCC1 (stereo not given) | -13.5%
CNC(=O)N1CCCCC1CCNS(C)(=O)=O (stereo not given) | -13.3%
C1CC(NCC2CC2)CN(Cc2noc(C3CC3)n2)C1 (stereo not given) | -15.4%
CN(Cc1ccc(Cl)s1)C(=O)c1ccccc1OCC(N)=O | -14.1%
CS(=O)(=O)CCNC1CCCN(Cc2noc(C3CC3)n2)C1 (stereo not given) | -13.7%
Cc1cc(NC(=O)NCCc2ccc3c(c2)OCCO3)n(C)n1 | -4.79%
CN1CCN(C(CNC(=O)c2ccc(Cl)cc2F)c2cccs2)CC1 (stereo not given) | 42.7%
CC(Cn1cccn1)NC(=O)Nc1ccc(N2CCCC2)nc1 (stereo not given) | 10.1%
CN(CC(N)=O)Cc1ccc(F)cc1Cl | -5.08%
CCc1nnc2n1CCN(Cc1csc(-c3ccccc3F)n1)C2 | -7.77%
Cc1cc(N(C)C)nc(N2CCN(Cc3nccn3C)CC2)n1 | -5.76%
CCOc1cc(C)nc(N2CCN(Cc3nccn3CC)CC2)n1 | 7.28%
CC(C)c1nnc2n1CCN(Cc1csc(-c3cnn(C)c3)n1)C2 | -2.14%

SMILES | cytotoxicity at 70.5 h
Cc1csc(NC(=O)CN2CCc3nn(C)c(=O)cc3C2)n1 | -8.05%
Cn1ccnc1-c1cccc(NC(=O)NCC(=O)NC(C)(C)C)c1 | 4.86%
Cn1nc2c(cc1=O)CN(CC(=O)Nc1nncs1)CC2 | -1.1%
CC(C)NC(=O)CCNC(=O)Nc1cccc(-c2nccn2C)c1 | -2.81%
CCn1nc2c(cc1=O)CN(CC(=O)Nc1cc(C)no1)CC2 | -0.888%
CC(C)c1cc(NC(=O)CN2CCc3nn(C)c(=O)cc3C2)on1 | -4.73%
Cn1cc(-c2csc(N3CCSCC3)n2)cn1 | -3.33%
Fc1cccc(-n2cccn2)c1NCc1nnc(C2CC2)o1 | -2.54%
CC(=O)NCCc1ccc(S(=O)(=O)N(C)C(C)C(C)(C)C)s1 (stereo not given) | -9.01%
CCc1nnc2n1CCN(Cc1csc(-c3ccccc3)n1)C2 | -12.9%
CC(C)C(O)C1(CNC(=O)Nc2ccc(CN3CCOC3=O)cc2)CC1 (stereo not given) | -11.3%
CCn1ccnc1CN1CCN(c2nc(C)cc(OC)n2)CC1 | -9.98%
COc1cccnc1NC(=O)COc1ccc(F)cc1F | -6.39%
NC(=O)C1CCN(Cc2cc3c(cc2Br)OCCO3)C1 (stereo not given) | -1.46%
Cc1nc(C(C)(C)NC(=O)Nc2ccc(C#N)cc2)no1 | -4.52%
COCCN(Cc1ccc(F)cc1Cl)C(=O)c1cnn(C)c1C | 7.76%
COCCN(Cc1ccc(F)cc1Cl)C(=O)c1c(C)noc1C | 2.4%
CCOC(=O)NCCNC(=O)c1cc(Br)cn1C(C)C | 9.21%
Cc1ccc(C(=O)N2CCOC(c3nc(C(C)(C)C)n[nH]3)C2)c(=O)[nH]1 (stereo not given) | 0.0481%
Cc1cc(C(=O)Nc2ccnc(OC3CCOC3)c2)c(C)o1 (stereo not given) | -1.8%
O=C(Nc1ccnc(OC2CCOC2)c1)c1ccccc1Cl (stereo not given) | -4.06%
CCOCCN1CCN(Cc2nnc(C3CC3)o2)CC1 | -2.06%
CCOCCN1CCN(Cc2nc(C)no2)CC1CC (stereo not given) | -2.4%
OCCOc1cc(F)ccc1NCc1nc(-c2cccs2)no1 | -10.9%

SMILES | cytotoxicity at 70.5 h
Cc1ccccc1-c1noc(CNc2ccc(F)cc2OCCO)n1 | 1.21%
Cc1ccc2cc(C(=O)N3CCN(C(=O)c4ccoc4)CC3)[nH]c2c1 | 8.19%
Cc1occc1CN(C)C(=O)Nc1ccc(=O)n(C)c1 | -7.93%
CC(NCc1ccccc1O)c1ccc(-n2ccnc2)cc1 (stereo not given) | 26.4%
Cc1nnc2n1CC(CNc1cnc3ccccc3n1)CC2 (stereo not given) | -9.52%
CC(C)c1nnc2n1CC(CNc1cnc3ccccc3n1)CC2 (stereo not given) | -9.13%
OCCOc1cc(F)ccc1NCc1nc(-c2ccoc2)no1 | 8.3%
CCc1nnc2n1CC(CNc1cnc3ccccc3n1)CC2 (stereo not given) | 1.47%
Cc1n[nH]cc1CNC1CCN(c2cccc(C(F)(F)F)c2)CC1 | 2.2%
Cn1[nH]c(C2CC2)c(-c2ccc3c(c2)OCO3)c1=N | 8.3%
Cc1cnn(CC(=O)NCC2(O)CCCc3ccccc32)c1 (stereo not given) | 2.95%
CCc1nc(Cn2c(=O)n(C)c3ccccc32)no1 | -6.86%
OCc1cc2ccccc2nc1NCC1(O)CCC1 | -8.77%
CCNC(=O)N1CCC(NC(=O)NCCc2ccc(C)cc2C)C1 (stereo not given) | -3.65%
OCc1cc2ccccc2nc1NCC1CCN(CC(F)(F)F)C1 (stereo not given) | 27.3%
CCNC(=O)N1CCC(NC(=O)NCCc2cc(F)cc(F)c2)C1 (stereo not given) | 1.55%
CN(Cc1ccncc1)C(=O)NCc1cn(-c2ccccc2)nn1 | -8.45%
CCOCCN1CCN(Cc2nnc(-c3occc3C)o2)CC1 | 9.82%
CCOCCN1CCN(Cc2nnc(-c3ccco3)o2)CC1 | -5.68%
Cc1cc(CSC2CCCN(c3cnn(C)c3)C2=O)no1 (stereo not given) | -3.62%
CC(C)(C)CC(=O)NCC(=O)Nc1ccn(Cc2ccccc2)n1 | -11%
NC(=O)NC(=O)CNC1(c2ccc(Cl)cc2)CCCC1 | -17.2%
Cn1nc(Br)c2c(NCCS(N)(=O)=O)ncnc21 | 28.8%
Cn1nc(Br)c2c(NCCCS(N)(=O)=O)ncnc21 | -22.7%

SMILES | cytotoxicity at 70.5 h
COCCCNC(=O)CN1CCSC(c2ccccc2)C1 (stereo not given) | 3.9%
CC(C)(C)CC(=O)NCC(=O)Nc1ccn(CCCn2ccnc2)n1 | -2.26%
O=C(c1ccc(N2CCCC2)nc1)N1CCCC(c2nccs2)C1 (stereo not given) | -20.6%
COc1ccc(C(C)NC(=O)N2CCNC(=O)CC2)cc1F (stereo not given) | -1.24%
CN1CC(C(=O)NC2(c3cccc(F)c3)CCOCC2)CC1=O (stereo not given) | -7.9%
Cn1cc(N2CCCC(SCc3nc(C4CC4)no3)C2=O)cn1 (stereo not given) | 29.8%
CC(C)(C)NC(=O)CNC(=O)Nc1cc(-c2ccccc2)ns1 | -14.8%
CCC1CN(c2ncnc3nc[nH]c23)CCO1 (stereo not given) | 11.7%
CC(C)C(=O)NCCCNC(=O)Nc1cc(-c2ccccc2)ns1 | -12.9%
CC(C(=O)NCC1CCN(c2ccncc2)CC1)S(C)(=O)=O (stereo not given) | -7.42%
FC(F)CN1CCC(NCc2ccc(-n3cccn3)nc2)CC1 | -9.95%
O=C(Nc1ccc(-n2cccn2)cc1)N1CCC(O)C1 (stereo not given) | 28.4%
CC(C)Cc1nc(CSC2CCCN(c3cnn(C)c3)C2=O)no1 (stereo not given) | -1.14%
c1ccc(-n2nnnc2CNCc2ccc3c(c2)OCCO3)cc1 | -8.49%
CCc1nc(CSC2CCCN(c3cnn(C)c3)C2=O)cs1 (stereo not given) | 7.29%
Cc1ccccc1OCCN1CCCC1CS(N)(=O)=O (stereo not given) | 0.0321%
CCn1nc2c(cc1=O)CN(CCOc1ccccc1C#N)CC2 | -8.44%
O=C(CN1CCSC(c2ccccc2)C1)NCc1ccccn1 (stereo not given) | -5.23%
Cn1cc(N2CCCC(SCc3ccco3)C2=O)cn1 (stereo not given) | 14.8%
CCC(C(=O)NCC1CCN(c2ccncc2)CC1)N(C)C (stereo not given) | -7.96%
Cc1cccc(CNCC2COC3(CCCCC3)O2)c1C (stereo not given) | 34.7%
CS(=O)(=O)CCNCc1ccc(OCc2cscn2)cc1 | -3.66%
Cc1ncsc1CNC(=O)N1CCN(Cc2ccccc2)C[C@H]1C | -3.58%
Cc1cc(CNC(=O)N2CCN(Cc3ccccc3)C[C@H]2C)on1 | 30.7%

SMILES | cytotoxicity at 70.5 h
CCNC(=O)CCC(=O)Nc1ccc2nn(C(C)C)cc2c1 | 18.4%
Cc1ncsc1CNC(=O)N1CCN(Cc2ccccc2)CC1C (stereo not given) | -9.74%
Cc1ccc(-n2ccnc2)c(C(=O)NCCOCC(F)(F)F)c1 | -8.14%
CCC(C)(C)C(=O)N1CCN(C2=NCC(C)S2)CC1 (stereo not given) | -8.95%
CC(C)n1cc2cc(NC(=O)Cn3cnnn3)ccc2n1 | -7.92%
Cc1ccc(CNC(=O)NC(C)CCS(C)(=O)=O)cc1F (stereo not given) | -7.34%
O=C(c1ccncc1)N1CCN(c2ccc(F)cc2Cl)CC1 | 18.4%
CC(CCS(C)(=O)=O)NC(=O)NCc1ccc2ccccc2c1 (stereo not given) | 5.09%
CCN1C(=O)C2(CCCCC2)NC12CCSCC2 | -7.61%
O=C1CN(C(=O)C2CCOC2)CCN1Cc1ccc(Cl)cc1 (stereo not given) | 23.8%
O=C1CN(C(=O)C2CCCOC2)CCN1Cc1ccc(Cl)cc1 (stereo not given) | -5.9%
COc1ccc(CSCC(O)CO)c(Cl)c1 (stereo not given) | 18.2%
OCC(O)CSCc1ccc(Cl)cc1Cl (stereo not given) | 0.304%
Cn1ccc2c(C(=O)N3CCC4(CCOC4)C3)cccc21 (stereo not given) | 23.5%
Cc1ncsc1C(=O)N1CCN(Cc2ccccc2)CC1C (stereo not given) | 2.52%
Cc1ncccc1CNCC1COC2(CCCCC2)O1 (stereo not given) | 27.5%
CC(C)OCCC(=O)Nc1cc(C(=O)N(C)C(C)C)ccc1Cl | 4.24%
CC(NC(=O)NCc1ccccn1)c1cccs1 (stereo not given) | -13.9%
O=C(NCc1cccnc1N1CCCCC1)c1ccc2c(c1)OCO2 | -18.5%
Cn1cccc1C1CCCN1Cc1noc(C(C)(C)C)n1 (stereo not given) | -21.2%
O=C(CCOc1ccccc1F)N1CCOCC1 | 44.2%
CCCN(CCc1ccccn1)C(=O)Cn1cnnn1 | -23.7%
CNc1cc2c(nn1)CCN(C(=O)c1ccccc1-n1cccn1)C2 | 47.8%
Cn1nc(C2CCCC2)c(-c2ccc3c(c2)OCO3)c1N | -8.03%
